pKd: −log10 of the molar value.

One test deals with T1, FLT3 D835Y (Homo sapiens, UniProt P36888, D835Y).
T1 sequence (P36888 27-993 D835Y): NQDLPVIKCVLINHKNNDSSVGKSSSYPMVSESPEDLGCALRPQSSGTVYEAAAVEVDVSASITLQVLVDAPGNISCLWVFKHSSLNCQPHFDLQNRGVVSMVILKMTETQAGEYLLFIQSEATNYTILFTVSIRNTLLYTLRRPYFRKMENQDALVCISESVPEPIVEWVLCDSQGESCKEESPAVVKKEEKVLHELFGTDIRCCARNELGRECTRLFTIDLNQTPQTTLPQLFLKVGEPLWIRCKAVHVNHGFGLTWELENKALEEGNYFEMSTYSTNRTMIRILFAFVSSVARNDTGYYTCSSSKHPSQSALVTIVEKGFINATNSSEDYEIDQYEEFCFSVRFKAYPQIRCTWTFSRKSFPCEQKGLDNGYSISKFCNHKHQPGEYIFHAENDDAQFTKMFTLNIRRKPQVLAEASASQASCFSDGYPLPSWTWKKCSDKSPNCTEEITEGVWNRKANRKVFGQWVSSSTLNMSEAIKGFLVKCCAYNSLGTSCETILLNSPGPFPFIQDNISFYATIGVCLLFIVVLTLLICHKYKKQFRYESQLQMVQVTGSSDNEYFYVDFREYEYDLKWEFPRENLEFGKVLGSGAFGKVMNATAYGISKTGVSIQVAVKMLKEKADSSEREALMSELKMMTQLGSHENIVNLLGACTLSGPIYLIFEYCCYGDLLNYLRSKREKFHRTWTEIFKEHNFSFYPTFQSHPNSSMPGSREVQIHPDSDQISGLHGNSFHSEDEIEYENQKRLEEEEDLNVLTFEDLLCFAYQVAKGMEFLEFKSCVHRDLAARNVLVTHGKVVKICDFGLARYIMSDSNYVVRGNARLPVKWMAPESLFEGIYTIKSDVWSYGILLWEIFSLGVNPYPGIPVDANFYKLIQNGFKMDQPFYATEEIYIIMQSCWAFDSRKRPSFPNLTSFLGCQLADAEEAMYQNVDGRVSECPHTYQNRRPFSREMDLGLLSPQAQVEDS
In words: DiscoverX KINOMEscan active site-directed competition binding, FLT3 D835Y. Conditions: Table 12; no ATP.
From the text: (§1) Kinase binding data were obtained for various exemplary compounds prepared according to Examples 1-8 using the DiscoverX KINOMEscan® active site-directed competition binding site-directed assay protocol described below. […] As a result, the data report thermodynamic interaction affinities (Kd values), rather than IC50 values that are dependent on ATP concentrations. The assay uses a DNA-tagged version of the protein kinase, and an immobilized ligand bound to a solid support. Compounds that directly or indirectly prevent kinase binding to the immobilized ligand reduce the amount of kinase captured on the solid support, which is detected using an ultra-sensitive qPCR method. Affinity constants reported from the assay have been reported to be independent of the immobilized ligand used that is coupled to the solid support (See supplemental information in Fabian, M. A. et. al., (2005) Nat. Biotechnol. 23, 329-336; Wodicka, L. M. et. al., (2010) Chem. Biol. 17, 1241-1249.)
Kinase-tagged T7 phage strains were prepared in an E. coli host derived from the BL21 strain. E. coli were grown to log-phase and infected with T7 phage and incubated with shaking at 32 °C until lysis. The lysates were centrifuged and filtered to remove cell debris. The remaining kinases were produced in HEK-293 cells and subsequently tagged with DNA for qPCR detection. Streptavidin-coated magnetic beads were treated with biotinylated small molecule ligands for 30 minutes at room temperature to generate affinity resins for kinase assays. The liganded beads were blocked with excess biotin and washed with blocking buffer (SeaBlock (Pierce), 1% BSA, 0.05% Tween 20, 1 mM DTT) to remove unbound ligand and to reduce non-specific binding. […] Test compounds were prepared as 111x stocks in 100% DMSO. Kds were determined using an 11-point 3-fold compound dilution series with three DMSO control points. All compounds for Kd measurements are distributed by acoustic transfer (non-contact dispensing) in 100% DMSO. The compounds were then diluted directly into the assays such that the final concentration of DMSO was 0.9%. All reactions were performed in polypropylene 384-well plates. Each was a final volume of 0.02 mL. The assay plates were incubated at room temperature with shaking for 1 hour and the affinity beads were washed with wash buffer (1×PBS, 0.05% Tween 20). The beads were then re-suspended in elution buffer (1×PBS, 0.05% Tween 20, 0.5 μM nonbiotinylated affinity ligand) and incubated at room temperature with shaking for 30 minutes. The kinase concentration in the eluates was measured by qPCR. Binding constants (Kds) were calculated with a standard dose-response curve using the Hill equation. The Hill Slope was set to −1. Curves were fitted using a non-linear least square fit with the Levenberg-Marquardt algorithm.
as §1, with “9-12” for “1-8”
Kinase-tagged T7 phage strains were prepared in an E. coli host derived from the BL21 strain. […]
Regarding `COc1cn2ncc(-c3nc(N[C@H]4CNCC[C@@H]4F)c(C#N)cc3F)c2nc1C1CC1` [Compound 7, 6-(5-cyclopropyl-6-methoxypyrazolo[1,5-a]pyrimidin-3-yl)-5-fluoro-2-(((3S,4S)-4-fluoropiperidin-3-yl)amino)nicotinonitrile], the pKd is 9.38.

As to `COc1cn2ncc(-c3nc(N[C@H]4CNCC[C@@H]4F)c(C#N)cc3F)c2nc1C(C)(C)O` [Compound 10, 5-fluoro-2-(((3S,4S)-4-fluoropiperidin-3-yl)amino)-6-(5-(2-hydroxypropan-2-yl)-6-methoxypyrazolo[1,5-a]pyrimidin-3-yl)nicotinonitrile], the negative-log Kd (pKd) is 9.68.

The molecule `COc1cn2ncc(-c3nc(N[C@H]4CNCC[C@@H]4F)c(F)cc3F)c2nc1C(C)(C)O` [Compound 13, 2-(3-(3,5-difluoro-6-(((3S,4S)-4-fluoropiperidin-3-yl)amino)pyridin-2-yl)-6-methoxypyrazolo[1,5-a]pyrimidin-5-yl)propan-2-ol] had a negative-log Kd (pKd) of over 9.77.

Staying with this test, now noted: Table 18; no ATP.
The molecule `COc1cn2ncc(-c3nc(N[C@H]4CNCC[C@@H]4F)ncc3F)c2nc1C(C)(C)O` [Compound 6a, 2-(3-(5-fluoro-2-(((3S,4S)-4-fluoropiperidin-3-yl)amino)pyrimidin-4-yl)-6-methoxypyrazolo[1,5-a]pyrimidin-5-yl)propan-2-ol] had a negative-log Kd (pKd) of over 9.77.

`COc1cn2ncc(-c3ccnc(N[C@H]4CNCC[C@@H]4F)n3)c2nc1C1CC1` [Compound 7a, 4-(5-cyclopropyl-6-methoxypyrazolo[1,5-a]pyrimidin-3-yl)-N-((3S,4S)-4-fluoropiperidin-3-yl)pyrimidin-2-amine] gave a pKd of 9.10.

In turn, `COc1cn2ncc(-c3cncc(N[C@H]4CNCC[C@@H]4F)n3)c2nc1C1CC1` [Compound 12a, 6-(5-cyclopropyl-6-methoxypyrazolo[1,5-a]pyrimidin-3-yl)-N-((3S,4S)-4-fluoropiperidin-3-yl)pyrazin-2-amine] gave a negative logarithm of the Kd (pKd) of 9.21.

Molecule `COc1cn2ncc(-c3nc(N[C@@H]4CCCNC4)ncc3F)c2nc1C1CC1` [Compound 14a, (R)-4-(5-cyclopropyl-6-methoxypyrazolo[1,5-a]pyrimidin-3-yl)-5-fluoro-N-(piperidin-3-yl)pyrimidin-2-amine] had a negative-log Kd (pKd) of over 9.77.

Turning to `COc1cn2ncc(-c3nc(N[C@H]4CNCC[C@@H]4F)ncc3F)c2nc1C1CC1` [Compound 15a, 4-(5-cyclopropyl-6-methoxypyrazolo[1,5-a]pyrimidin-3-yl)-5-fluoro-N-((3S,4S)-4-fluoropiperidin-3-yl)pyrimidin-2-amine], the negative logarithm of the Kd (pKd) is 9.47.

Broadly, the pKd is the Kd on a negative log10 scale, so that one unit is a factor of ten. Read a high pKd as a low Kd.

The values above are taken from patent US20260374773A1, “MULTI-CYCLIC IRAK AND FLT3 INHIBITING COMPOUNDS AND USES THEREOF” (CHILDREN'S HOSPITAL MEDICAL CENTER, priority 2022, published 2026).
